Data set [1] has as its target Cannabinoid receptor 1 (Homo sapiens, UniProt P21554).
Description: Agonist activity at human cannabinoid CB1 receptor expressed in CHO cells co-expressing AP-1 response element after 5 hrs by luciferase reporter gene assay
Data set [2] can be described thus: Aqueous solubility of the compound in phosphate buffered saline at pH 7.1 by shake-flask method. Format: physicochemical.
Data set [3] is described as follows: Aqueous solubility of the compound in citrate buffer at pH 5 by shake-flask method. The class given is physicochemical.
Data set [4] can be described thus: Aqueous solubility of the compound in phosphate buffered saline at pH 7.4 by shake-flask method. Format: physicochemical.

Chain of Cannabinoid receptor 1 (P21554 whole entry): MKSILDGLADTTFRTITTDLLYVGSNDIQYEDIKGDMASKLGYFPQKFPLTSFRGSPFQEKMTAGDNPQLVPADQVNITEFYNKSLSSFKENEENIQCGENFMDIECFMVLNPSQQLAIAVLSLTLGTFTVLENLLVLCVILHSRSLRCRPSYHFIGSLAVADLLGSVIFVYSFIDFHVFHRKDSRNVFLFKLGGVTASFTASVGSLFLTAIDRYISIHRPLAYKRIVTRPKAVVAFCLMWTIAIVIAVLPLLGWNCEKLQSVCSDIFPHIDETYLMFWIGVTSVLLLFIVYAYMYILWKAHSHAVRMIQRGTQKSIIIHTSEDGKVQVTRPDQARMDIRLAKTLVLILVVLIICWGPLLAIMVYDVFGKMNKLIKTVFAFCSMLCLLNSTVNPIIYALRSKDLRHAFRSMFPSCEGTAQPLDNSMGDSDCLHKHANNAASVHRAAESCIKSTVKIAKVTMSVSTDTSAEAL

Regarding `CCN1CCN(C(=O)c2cn(CC3CCCCC3)c3c(Cl)cccc23)CC1`, in data set [1], a half-maximal effect (EC50) was put at 501 nM.

In the case of `CCN1CCN(C(=O)c2cn(CC3CCCCC3)c3c(OC)cccc23)CC1(C)C.Cl`, the solubility (thermodynamic) in data set [2] amounted to 181 µg/mL; in data set [3] it was 3830 µg/mL. Besides, the EC50 in data set [1] is 126 nM.

`O=C(N/N=C1\C(=O)N(Cc2ccccc2)c2ccccc21)c1ccccc1` had an EC50 in data set [1] of 631 nM.

In turn, `CCN1CCN(C(=O)c2cn(CC3CCCCC3)c3ccc(OC)cc23)CC1` yielded an EC50 in data set [1] of more than 3160 nM.

With `CCN1CCN(C(=O)c2cn(CC3CCCCC3)c3cc(Br)ccc23)CC1`, the EC50 in data set [1] was 1000 nM.

In turn, `Cc1ccc2c(c1)c(C(=O)N1CCN(C)CC1)cn2CC1CCCCC1` gave an EC50 in data set [1] of 2000 nM.

In turn, `CN(C)CCN(C)C(=O)c1cn(CC2CCCCC2)c2ccccc12` returned an EC50 in data set [1] of more than 3160 nM.

Turning to `CCN1CCN(C(=O)c2cn(CC3CCCCC3)c3ccccc23)CC1`, the midpoint of the response in data set [1], the EC50, lay at 316 nM.

`CCN1CCN(C(=O)c2cn(CC3CCCCC3)c3cc(Cl)ccc23)CC1`: in data set [1], the EC50 is 1580 nM.

With `CS(=O)(=O)O.O=C(Cc1ccccc1)N/N=C1\C(=O)N(CC2CCCCC2)c2cc(OCCN3CCOCC3)ccc21`, the thermodynamic solubility in data set [4] is less than 500 µg/mL.

`CCN1CCN(C(=O)c2cn(Cc3ccccc3)c3c(OC)cccc23)CC1` had an EC50 in data set [1] of more than 3160 nM.

`CCN1CCN(C(=O)c2cn(CC3CCCCC3)c3c(C)cccc23)CC1`: in data set [1], the EC50 is 200 nM.

For `CCN1CCN(C(=O)c2cn(CC3CCCCC3)c3c(Br)cccc23)CC1`, in data set [1], it took 794 nM to reach a half-maximal effect (EC50).

In the case of `CN(C)CCNC(=O)c1cn(CC2CCCCC2)c2ccccc12`, in data set [1], the EC50 is more than 3160 nM.

`O=C(NCc1ccccc1)c1cn(CC2CCCCC2)c2ccccc12` had an EC50 in data set [1] of 63.1 nM.

As to `O=C(Cc1ccccc1)N/N=C1\C(=O)N(CC2CCCCC2)c2cc(OCCN3CCOCC3)ccc21`, the EC50 in data set [1] is 63.1 nM.

In data set [1], `CCN1CCN(C(=O)c2cn(CCN3CCOCC3)c3c(OC)cccc23)CC1` yielded an EC50 of more than 3160 nM.

By EC50 is commonly meant the concentration at which the effect is half-maximal. Lower therefore signals greater potency. What is called solubility (thermodynamic) is solubility found after equilibrating the solid with the medium.
